We go through 14 molecules from article PMC12396409, “Screening and hit evaluation of a microbial metabolite library against the pathogenic Plasmodium falciparum and Toxoplasma gondii parasites” (International Journal for Parasitology: Drugs and Drug …, 2025).

Like-named read-outs stand apart in the source and are kept apart here.

In assay [1] the test system is P. falciparum 3D7 parasites. Nature of the assay: P. falciparum growth inhibition assay, 1-cycle (72 h treatment), SYBR DNA staining (library screen at 2 μg/mL and dose-response). In kind it is cell-based, Plasmodium falciparum.
For assay [2], the system named is P. falciparum 3D7 parasites. Put plainly: P. falciparum growth inhibition assay, 2-cycle (120 h treatment), delayed-death screen and dose-response. The format is cell-based, Plasmodium falciparum.
Setting [3] is: P. falciparum, 72 h, 2 μg/mL, mean of both replicates, growth (% of control).
[4] abbreviates: 3D7, 72 h treatment, mean ± S.D., n ≥ 3, read-out: IC50 (μM), P. falciparum.
Setting [5] is: Plasmodium falciparum, 3D7, 72 h treatment, mean ± S.D., n ≥ 3, read-out: IC50 (μM), P. falciparum.
The mark [6] stands for this setting: 72 h treatment, read-out: IC50, P. falciparum.

Consider `CC1=C[C@H]2[C@H](O)[C@H](O)CC[C@H]2[C@@](C)(C(O)=C2C(=O)CNC2=O)[C@@H]1CCC(C)C(O)/C(C)=C/CC(O)/C=C/C(C)C(O)/C=C/CC(O)/C(C)=C/CC(O)CC1CCCN1C(=N)N` (some centres unmarked) [Lydicamycin], for which the Mean in assay [1] (setting [3]) is given as 36.70.

`CN(C)[C@@H]1C(O)=C(C(N)=O)C(=O)[C@@]2(O)C(O)=C3C(=O)c4c(O)cccc4[C@@](C)(O)[C@H]3[C@H](O)[C@@H]12` [Oxytetracycline, reference compound]: the activity at 2 µg/mL in assay [1] (Plasmodium falciparum, 3D7; P. falciparum, 2 μg/mL, 72 h; read-out: 1) Growth (%) at 72 h) turned out to be 47.4%; in assay [2] (Plasmodium falciparum, 3D7; P. falciparum, 2 μg/mL, 120 h; read-out: 2) Growth (%) at 120 h), 15.2%. In assay [2] (P. falciparum, growth at 72 h / growth at 120 h, 2 μg/mL), the “3) Fold change (72 h/120 h)” value came to 3.1.

`CCO[C@@H]1[C@@H](OC)[C@H](C)O[C@@H](O[C@@H]2C[C@H]3CC[C@@H]4[C@@H](C=C5C(=O)[C@H](C)[C@@H](O[C@H]6CC[C@H](N(C)C)[C@@H](C)O6)CCC[C@H](CC)OC(=O)C[C@H]54)[C@@H]3C2)[C@@H]1OC` [3-Ethoxy-5,6-dihydrospinosyn J]: the IC50 in assay [1] (setting [4]) is 0.42 ± 0.22 µM.

`CC[C@H](C)[C@H]1O[C@]2(CC[C@@H]1C)C[C@@H]1C[C@@H](C/C=C(\C)[C@@H](O[C@H]3C[C@H](OC)[C@@H](O)[C@H](C)O3)[C@@H](C)/C=C/C=C3\CO[C@@H]4[C@H](O)C(C)=C[C@@H](C(=O)O1)[C@]34O)O2` [Ivermectin B1a monosaccharide] registered a Mean in assay [1] of 49.58.

On to `CC[C@H](C)[C@H]1OC(=O)[C@H](Cc2ccccc2)N(C)C(=O)[C@@H](C(C)C)OC(=O)[C@H](Cc2ccccc2)N(C)C(=O)[C@@H](C(C)C)OC(=O)[C@H](Cc2ccccc2)N(C)C1=O` [Beauvericin A], for which the IC50 in assay [1] (Plasmodium falciparum, 3D7, 72 h treatment, read-out: IC50, P. falciparum) came out at 0.33 µM; in assay [1] (setting [5]), 0.326 ± 0.095 µM.

`CCO[C@@H]1[C@@H](OC)[C@H](C)O[C@@H](O[C@H]2C[C@H]3[C@@H]4C=C5C(=O)[C@H](C)[C@@H](O[C@H]6CC[C@H](N(C)C)[C@@H](C)O6)CCC[C@H](CC)OC(=O)C[C@H]5[C@@H]4C=C(C)[C@@H]3C2)[C@@H]1OC` [3-Ethoxyspinosyn L]: the IC50 in assay [1] (setting [4]) worked out at 0.57 ± 0.28 µM.

Consider `CCCC[C@H](C)[C@@H]1CC(=O)N[C@@H](Cc2ccccc2)C(=O)N[C@@H](C)C(=O)N[C@H]([C@@H](C)CC)C(=O)O1` [Beauveriolide III], for which, in assay [1] (setting [5]), the half-inhibitory concentration (IC50) was more than 1 µM.

Regarding Ikarugamycin, the Mean in assay [1] (setting [3]) is recorded as 48.31.

Thiocillin III: the IC50 in assay [1] (setting [4]) is 0.11 ± 0.006 µM; in assay [1] (setting [6]), less than 0.2 µM.

As for `C/C=C(/NC(=O)c1csc(-c2csc(-c3ccc4c(n3)-c3csc(n3)C(C(C)OC)NC(=O)c3csc(n3)C(C(C)(C)O)NC(=O)c3csc(n3)/C(=C\C)NC(=O)C(C(C)O)NC(=O)c3csc-4n3)n2)n1)C(=O)NCC(C)O` (centres unmarked) [Thiocillin II], the IC50 in assay [1] (setting [4]) was 0.161 ± 0.038 µM; in assay [1] (setting [6]), less than 0.2 µM.

For `CCO[C@@H]1[C@@H](OC)[C@H](C)O[C@@H](O[C@H]2C[C@H]3[C@@H]4C=C5C(=O)[C@H](C)[C@@H](O)CCC[C@H](CC)OC(=O)C[C@H]5[C@@H]4C=C(C)[C@@H]3C2)[C@@H]1OC` [3-Ethoxyspinosyn L pseudoaglycone], the IC50 in assay [1] (setting [4]) was more than 1 µM.

For the molecule Bischloroanthra-benzoxocinone, the Mean in assay [1] (setting [3]) worked out at 31.15.

As for `CC[C@H]1CCC[C@H](O)[C@@H](C)C(=O)C2=C[C@@H]3[C@@H](C=C(C)[C@@H]4C[C@@H](O[C@@H]5O[C@@H](C)[C@H](OC)[C@@H](OC)[C@H]5OC)C[C@@H]34)[C@@H]2CC(=O)O1` [Spinosyn D pseudoaglycone], in assay [1] (setting [4]), the IC50 is more than 1 µM.

Regarding `CCO[C@@H]1[C@@H](OC)[C@H](C)O[C@@H](O[C@@H]2C[C@H]3CC[C@@H]4[C@@H](C=C5C(=O)[C@H](C)[C@@H](O)CCC[C@H](CC)OC(=O)C[C@H]54)[C@@H]3C2)[C@@H]1OC` [3-Ethoxy-5,6-dihydrospinosyn J pseudoaglycone], the IC50 in assay [1] (setting [4]) is more than 1 µM. The “Screen (P. falciparum)” value in assay [1] (library screen at 2 μg/mL, 3D7, 72 h, DD from the 120 h timepoint) was “I”.

As usually defined, the IC50 is the midpoint of a concentration-inhibition curve.
